Assay results taken from patent US11197885B2, “Collagen enhancing agent made from low acyl gellan gum, methods of making and methods of using the same” (The University of Toledo, priority 2015, dated 2021).

Columns and labels:
[1] = system: phosphorylated CREB in differentiated PC12 cells; assay: nuclear p-CREB immunostaining in differentiated PC12 cells; format: cell-based; conditions: 1 μM, 24 h
Description: Differentiated PC12 cells and mouse embryonic cortical neurons (E17, DIV14) were treated with mock, dextran, alginate, HA-GAGR, or midi-GAGR (1 μM) for 24 h and fixed in 3.7% paraformaldehyde. The fixed cells and neurons were immunostained with antibodies against α-tubulin and phosopho-CREB (p-CREB) along with DAPI (nucleus).

[2] = system: rat embryonic cortical neurons exposed to 25 μM 4-HNE; assay: neuritic atrophy caused by 4-HNE in cortical neurons; format: cell-based; conditions: pre-treatment 2 days (1 μM; ascorbate 100 μM), then 25 μM 4-HNE 1 day
Description: Rat embryonic cortical neurons were treated with mock (FIG. 11C), 1 μM HA-GAGR (high acyl gellan gum), 1 μM dextran, 100 μM ascorbate, or 1 μM midi-GAGR (FIG. 13A) for 2 days and then with 25 μM 4-hydroxynonenal (4-HNE), a lipid peroxide, for 1 day. After fixation, neurons were immunostained with anti-synaptophysin antibody (green) and rhodamine-phalloidin (actin: red). Scholl ring analysis was performed.

FGFR1 = FGFR1 (Mus musculus, UniProt P16092); assay: affinity chromatography with midi-GAGR-conjugated sepharose beads, FGFR1 immunoblotting; format: binding; parameters: Whole mouse brains were homogenized for cytosol extraction in PMEE buffer containing 1% Igepal CA-630; from tissue; host or cells: mouse brain (cerebral cortex / whole brain) detergent extract; conditions: 0.5% Igepal CA-630 PMEE buffer
Description: To examine whether midi-GAGR interacts with synaptosomal FGFR1 or not, an affinity chromatography using midi-GAGR-conjugated sepharose beads was performed. Either midi-GAGR or dextran were conjugated to epoxy-activated sepharose 6B that is a pre-activated medium that can be conjugated to the hydroxyl groups of carbohydrates. Briefly, 200 μL of 7.4 mM midi-GAGR or 5 kD dextran in H2O was mixed with 200 μL of epoxy-activated sepharose beads in a microtube and incubated on a rotator (16 h, 37° C.). The mixture was spun down at 1,000×g (10 min) to separate bead-bound polysaccharides from unbound. Unoccupied active sites on beads were blocked by incubation (4 h, 45° C.) in 1 M ethanolamine (pH 8). Then, beads were washed with three cycles of alternating pH solutions—0.1 M acetate buffer (pH 4) and 0.1 M Tris-HCl buffer (pH 8), both containing 0.5 M NaCl. The conjugation of polysaccharides to beads was confirmed by phenol-sulfuric acid colorimetry. Cerebral cortices were dissected from four female mice (BALB/C, 8 wks old) and homogenized with a hand grinder in 1 mL of PMEE homogenization buffer plus 1% Igepal CA-630 and protease inhibitors (PIs). The homogenate was centrifuged at 1,000×g (10 min) to remove nuclei and undisrupted cells. The supernatant was subjected to 5-6 strokes through 27G needle. Post-nuclear supernatant was centrifuged at 1,000×g (15 min). […]

Chain of FGFR1 (P16092 22-822): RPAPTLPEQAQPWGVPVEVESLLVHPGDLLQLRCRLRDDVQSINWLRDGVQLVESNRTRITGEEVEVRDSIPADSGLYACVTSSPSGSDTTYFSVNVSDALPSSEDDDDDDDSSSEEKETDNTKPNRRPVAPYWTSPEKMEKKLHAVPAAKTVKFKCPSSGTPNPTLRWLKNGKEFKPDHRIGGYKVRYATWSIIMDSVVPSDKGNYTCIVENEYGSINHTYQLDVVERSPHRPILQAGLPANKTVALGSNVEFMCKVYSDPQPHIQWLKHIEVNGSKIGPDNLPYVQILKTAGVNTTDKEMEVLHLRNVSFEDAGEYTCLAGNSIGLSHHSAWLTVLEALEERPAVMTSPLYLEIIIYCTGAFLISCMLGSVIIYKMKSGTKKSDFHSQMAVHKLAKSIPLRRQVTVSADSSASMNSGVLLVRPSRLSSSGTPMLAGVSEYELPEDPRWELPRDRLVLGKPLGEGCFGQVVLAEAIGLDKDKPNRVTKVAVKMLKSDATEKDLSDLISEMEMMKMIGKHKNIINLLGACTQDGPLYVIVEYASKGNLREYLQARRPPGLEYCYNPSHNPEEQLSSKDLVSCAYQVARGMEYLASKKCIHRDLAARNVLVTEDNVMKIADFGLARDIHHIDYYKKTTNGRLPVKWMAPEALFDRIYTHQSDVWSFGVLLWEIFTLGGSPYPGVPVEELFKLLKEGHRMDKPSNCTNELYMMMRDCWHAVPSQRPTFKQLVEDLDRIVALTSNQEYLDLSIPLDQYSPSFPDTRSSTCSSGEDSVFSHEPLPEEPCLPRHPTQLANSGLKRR

Question: How did the “increase in levels of nuclear p-CREB” value [1] turn out when dextran was run?
Answer: Its value is “not significantly increased”.

Question: What about the “neurites in the presence of 4-HNE (neuritic atrophy)” value [2] of the same substance?
Answer: The value was “lost neuritis”.

Question: What about the “FGFR1 pulled down from brain extract by polysaccharide-conjugated beads” value (FGFR1) of the same substance?
Answer: Its value is “not”.
